Values quoted from earlier work in US20060286183A1, “Diet supplement for causing rapid weight loss, controlling appetite, managing stress, supporting relaxation, combating fatigue and supporting mental well-being” (priority 2005, published 2006).
Values belong to the molecule of their own block, whether it stands above or below them.

Assays:
[1] = compared with vitamin C and E
[2] = lean and obese rats
glutamate dehydrogenase = glutamate dehydrogenase (Homo sapiens, UniProt P00367)
[3] = target: T1, catechol-O-methyl-transferase (COMT) (Homo sapiens, UniProt P21964)
T1 sequence (P21964 1-271): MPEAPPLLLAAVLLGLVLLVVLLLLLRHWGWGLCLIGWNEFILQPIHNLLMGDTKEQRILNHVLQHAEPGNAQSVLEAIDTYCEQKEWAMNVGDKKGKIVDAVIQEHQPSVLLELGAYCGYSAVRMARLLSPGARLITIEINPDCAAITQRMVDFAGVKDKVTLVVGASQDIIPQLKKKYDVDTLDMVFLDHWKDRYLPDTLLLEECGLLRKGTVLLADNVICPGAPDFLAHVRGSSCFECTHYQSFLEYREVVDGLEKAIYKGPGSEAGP

[4] = rats
[5] = humans
[6] = in vivo
[7] = during exercise, untrained men and women
ATP:citrate lyase = target: T2, ATP:citrate lyase (Homo sapiens, UniProt P53396)
T2 sequence (P53396 1-1101): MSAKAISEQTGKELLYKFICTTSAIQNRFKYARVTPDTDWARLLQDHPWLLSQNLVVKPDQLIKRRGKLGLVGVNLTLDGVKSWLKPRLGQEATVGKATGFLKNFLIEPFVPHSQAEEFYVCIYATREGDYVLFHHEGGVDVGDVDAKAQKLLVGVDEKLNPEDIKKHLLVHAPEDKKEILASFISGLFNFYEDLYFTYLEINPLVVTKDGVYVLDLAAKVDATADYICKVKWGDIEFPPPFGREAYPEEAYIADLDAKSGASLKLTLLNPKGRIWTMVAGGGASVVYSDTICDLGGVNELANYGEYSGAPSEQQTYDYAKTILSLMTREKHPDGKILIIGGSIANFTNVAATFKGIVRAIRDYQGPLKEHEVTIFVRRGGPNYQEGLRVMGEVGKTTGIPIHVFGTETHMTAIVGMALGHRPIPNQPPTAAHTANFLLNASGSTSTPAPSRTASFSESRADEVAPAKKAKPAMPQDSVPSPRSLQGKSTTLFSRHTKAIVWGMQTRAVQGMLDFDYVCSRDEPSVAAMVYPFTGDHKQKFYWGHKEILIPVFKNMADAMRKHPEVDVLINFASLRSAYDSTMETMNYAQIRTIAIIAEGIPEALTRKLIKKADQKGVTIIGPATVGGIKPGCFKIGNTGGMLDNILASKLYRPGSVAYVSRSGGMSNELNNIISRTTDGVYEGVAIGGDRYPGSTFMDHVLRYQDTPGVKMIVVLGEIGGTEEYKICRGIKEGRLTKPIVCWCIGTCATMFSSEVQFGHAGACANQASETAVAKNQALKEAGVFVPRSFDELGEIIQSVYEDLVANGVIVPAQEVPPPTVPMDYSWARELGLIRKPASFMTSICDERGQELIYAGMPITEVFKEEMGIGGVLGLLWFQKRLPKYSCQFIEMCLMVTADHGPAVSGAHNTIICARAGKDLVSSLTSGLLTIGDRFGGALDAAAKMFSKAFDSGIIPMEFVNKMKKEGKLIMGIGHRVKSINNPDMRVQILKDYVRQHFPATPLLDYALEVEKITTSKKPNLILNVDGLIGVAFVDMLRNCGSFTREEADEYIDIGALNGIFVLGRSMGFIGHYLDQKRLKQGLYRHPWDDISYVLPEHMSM

[8] = stroke patients
forebrain ischemia = conditions: ischemia maintained for 10 minutes
[9] = healthy women, three-day supplementation
[10] = patients with mild to moderate psychosyndromes such as dementia
[11] = elderly patients
[12] = humans; remark: listed apart in the source
[13] = animals
[14] = obese rats
[15] = rat, administration of NOPE
[16] = in vivo; remark: listed apart in the source
ATP = conditions: calorie restriction
[17] = rats; remark: listed apart in the source
[18] = not given; remark: listed apart in the source
[19] = during fatigue

Chain of glutamate dehydrogenase (P00367 54-558): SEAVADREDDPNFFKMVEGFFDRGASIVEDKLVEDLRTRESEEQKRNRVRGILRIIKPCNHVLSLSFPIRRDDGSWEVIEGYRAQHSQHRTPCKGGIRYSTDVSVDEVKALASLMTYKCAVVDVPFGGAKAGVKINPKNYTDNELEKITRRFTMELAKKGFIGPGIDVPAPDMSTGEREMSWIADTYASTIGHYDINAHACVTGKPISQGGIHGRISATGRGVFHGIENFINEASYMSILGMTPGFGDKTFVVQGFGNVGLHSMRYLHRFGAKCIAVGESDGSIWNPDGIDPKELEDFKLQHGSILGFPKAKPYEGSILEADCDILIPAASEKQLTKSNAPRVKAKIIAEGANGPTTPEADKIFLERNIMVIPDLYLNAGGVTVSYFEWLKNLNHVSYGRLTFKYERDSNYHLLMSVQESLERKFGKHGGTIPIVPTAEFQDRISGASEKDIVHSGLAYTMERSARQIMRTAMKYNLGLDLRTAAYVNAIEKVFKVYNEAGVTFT

Molecule: O=C(O[C@@H]1Cc2c(O)cc(O)cc2O[C@@H]1c1cc(O)c(O)c(O)c1)c1cc(O)c(O)c(O)c1 [EGCG, (−)-Epigallocatechin-3-gallate]
antioxidant activity [1]: greater than many well known and established antioxidants | food intake, body weight, cholesterol and triglycerides [2]: effective at reducing food intake, body weight, cholesterol and triglycerides | glutamate dehydrogenase inhibition (glutamate dehydrogenase): inhibitor of glutamate dehydrogenase | COMT inhibition [3]: inhibitor

ATP:citrate lyase inhibition (ATP:citrate lyase): competitive inhibitor
Molecule: O=C(O)CC(O)(C(=O)O)C(O)C(=O)O (stereo not drawn) [HCA, Hydroxycitric acid]
fatty acid synthesis and appetite [4]: inhibit fatty acid synthesis and repress appetite | caloric intake [5]: reduce caloric intake | serotonin levels [6]: significantly increased | fat oxidation [7]: increase fat oxidation during exercise

Molecule: CCOC(=O)C1=C[C@]2(CC)CCCN3CCc4c(n1c1ccccc41)[C@@H]32 [Vinpocetine]
cerebral blood flow [8]: increase cerebral blood flow | brain cell damage (forebrain ischemia): prevent brain cell damage | memory [9]: improvement in the memory | cognitive performance [10]: cognitive performance improved | improvement in chronic cerebral dysfunction [11]: significant improvement

5-alpha-reductase inhibition (5-alpha-reductase): inhibiting 5-alpha-reductase
Molecule: CC1=C(/C=C/C(C)=C/C=C/C(C)=C/C=C/C=C(C)/C=C/C=C(C)/C=C/C2=C(C)C(=O)[C@@H](O)CC2(C)C)C(C)(C)C[C@H](O)C1=O [Astaxanthin]
safety [12]: safe | exercise-induced muscle damage [13]: attenuate exercise-induced muscle damage

Molecule: N-olyl-phosphatidyl ethanolamine [NOPE]
body weight [14]: lower body weight | appetite and weight [15]: causes appetite suppression and subsequent weight loss

Molecule: [Cr] [Chromium]
HDL cholesterol [16]: increase HDL | lean mass (clinical): increase lean mass | body fat (combined with exercise): reduce body fat

Molecule: C/C=C(\C)C(=O)O[C@@H]1C[C@H]2[C@@H](CC=C3C[C@@H](O[C@H]4C[C@H](OC)[C@H](O[C@H]5C[C@H](OC)[C@H](O[C@@H]6O[C@H](C)[C@@H](O)[C@H](OC)[C@H]6O)[C@@H](C)O5)[C@@H](C)O4)CC[C@@]32C)[C@@]2(O)CC[C@H](C(C)=O)[C@@]12C [Example P57]
ATP (ATP): countered the reduction in ATP normally expected from calorie restriction | food intake [17]: reduce food intake

Molecule: N[C@@H](Cc1ccc(O)cc1)C(=O)O [Tyrosine]
mood and cognitive performance ([18]; periods of stress): improve mood and cognitive performance | blood pressure and cognition ([18]; under stress): reduction in blood pressure in addition to cognitive improvement | mental performance [19]: improve
